US20140274978A1, “Phytosterol spirostane and spirostene derivatives having a wide variety of utilities in humans and other animals” (priority 2013, published 2014)
Where two headings read alike, the source gives them in different places.

Key:
[1] = tested on: protein synthesis; details: cited from earlier work; for sensitivity of protein stimulation to actinomycin D: Russian report, Biol. Nauki 1984
[2] = Oral 5-androsten-3β,17β-diol-7-one diacetate with weight resistance training; format: in vivo, humans
Method: Human volunteers familiar with conventional anabolic steroids used 60 mg/day (20 mg tid) 5-androsten-3β,17β-diol-7-one diacetate orally, in conjunction with weight resistance training.

[3] = Laxogenin in a person with double knee replacement (pain, recovery); format: in vivo, humans
Method: The compounds of the present invention also have the ability to mediate and/or reduce pain in humans and other animals. A person received a double knee replacement due to long time injuries. They began taking 3 doses per day of Laxogenin at 150 mg per dose one week prior to knee surgery.

[4] = Oral administration to older dogs (vigor, health); format: in vivo; details: for behavior of ailing dogs / age lived to: two Rhodesian Ridgeback dogs; for behavior of ailing dogs: age 13, failure to thrive; for age lived to: daily dosages from age 13; for activity, stamina, appetite, stiffness, overall health reported by pet owners / lean muscle mass and body fat: dogs of 7-14 years of age; for activity, stamina, appetite, stiffness, overall health reported by pet owners: 1-10 mg/day in two divided doses; for lean muscle mass and body fat: over 2-3 months administration
Text: Their appetite and activity increased, they became leaner—leaner muscle, wanted to go for walks and became like a new dog. They lived another 3 years on a daily dosages to age 16. Their treating Veterinarian said he had never seen dogs of their size and breed live to such an advanced age. Numerous similar reports were collected.
See Kokl. Akad. Nauk. Uzb., SSR, 1981, v.3, pp. 31-33. See also Farmakol. Toksikol., 1976, 39(5), pp. 631-35.

[5] = labeled ecdysterone 50 mg/kg, mice; cited from earlier work
[6] = Physical stamina and endurance of hunting dogs; format: in vivo; details: 5-10 mg/day
Text: The compounds of invention are also useful for increasing physical stamina and endurance in young working and sporting dogs used for hunting, sled pulling and herding and dogs in competitions such as greyhound racing, field trials, agility, disc dog, dock jumping and Schutzhund.

[7] = Topical lotion on severely atrophic skin of an elderly person; format: in vivo, humans; details: atrophic skin of hands; for skin elasticity and strength: after one month; for traumatic purpurra and venous lakes: two months
Text: Phytosterol derivative compounds of the present invention are also useful as skin agents for animals and useful as cosmetic agents when formulated in preparations which, when applied to the skin, create a penetrating flux that will deliver the compound to both the epidermis and dermis. The preferred lotion formulations are of low irritancy and are generally comprised of either a spirostane or a spirostene or, preferably for synergistic reasons, a combination of both [0.05-0.2% (w/w) combined in a ratio of 2:1 to 1:2] dissolved in a solution consisting of propylene glycol [50-70% (w/w)]. propylene carbonate [15-25% (w/w)], water [10-20% (w/w)], and glycerol [0.12.0% (w/w)]. The steroid solutions are most preferably formulated at 80-90% saturation.
The compounds of invention, when formulated as above, are useful for reversing many aspects of degenerative skin disorders (such as thin, fragile, inelastic skin and weakened dermal blood vessels) due to various causes such as aging or chronic corticosteroid therapy.

[8] = Synergy of 7-keto-diosgenin with laxogenin and/or 5-hydroxy laxogenin (inventor's finding); details: 1:1 ratio found effective
[9] = molecular target: T1, androgen receptors (Homo sapiens, UniProt P10275); test: Competitive binding inhibition studies (Baylor University), androgen receptors; details: even at the limits of compound solubility
T1 sequence (P10275 1-920): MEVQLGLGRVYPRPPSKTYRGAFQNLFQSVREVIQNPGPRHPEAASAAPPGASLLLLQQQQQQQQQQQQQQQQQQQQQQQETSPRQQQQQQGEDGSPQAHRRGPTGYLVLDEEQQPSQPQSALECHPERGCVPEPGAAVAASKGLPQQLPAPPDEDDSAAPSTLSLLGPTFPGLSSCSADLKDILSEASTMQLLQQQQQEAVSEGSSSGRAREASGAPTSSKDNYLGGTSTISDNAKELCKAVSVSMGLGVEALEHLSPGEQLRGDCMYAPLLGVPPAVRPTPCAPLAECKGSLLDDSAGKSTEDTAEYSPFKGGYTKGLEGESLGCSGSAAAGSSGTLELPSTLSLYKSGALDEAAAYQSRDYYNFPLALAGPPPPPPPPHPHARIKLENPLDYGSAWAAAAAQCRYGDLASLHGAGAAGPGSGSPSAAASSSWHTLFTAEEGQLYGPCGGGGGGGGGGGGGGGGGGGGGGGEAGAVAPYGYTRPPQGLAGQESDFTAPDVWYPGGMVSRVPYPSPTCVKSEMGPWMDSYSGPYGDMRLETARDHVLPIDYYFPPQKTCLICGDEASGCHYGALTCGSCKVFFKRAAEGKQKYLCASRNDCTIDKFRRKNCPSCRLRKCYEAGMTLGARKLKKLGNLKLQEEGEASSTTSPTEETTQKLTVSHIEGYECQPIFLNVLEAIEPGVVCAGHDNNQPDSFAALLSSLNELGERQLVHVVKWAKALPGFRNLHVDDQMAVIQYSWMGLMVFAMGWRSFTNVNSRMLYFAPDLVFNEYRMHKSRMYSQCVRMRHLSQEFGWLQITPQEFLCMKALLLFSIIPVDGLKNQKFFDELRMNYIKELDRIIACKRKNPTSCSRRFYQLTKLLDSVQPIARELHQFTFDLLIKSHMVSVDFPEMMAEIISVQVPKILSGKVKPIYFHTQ
Text: (§1) Consequently, the spirostane and spirostene compounds of the present invention are expected to be devoid of hormonal activity.

[10] = tested on: estrogen receptors; test: Competitive binding inhibition studies (Baylor University), estrogen receptors; details: even at the limits of compound solubility
Text: as §1

[11] = Oral administration to aging human volunteers (energy, stamina, sleep); format: in vivo, humans
Method: The spirostanic compounds of the invention are also useful in increasing and restoring health and vigor, useful in preventing fatigue, and useful in improving physical condition and performance and increasing work output in aging humans and other mammals. For example, 15 mg of 25R-Spirostan-3B, 5α-diol-6-one was given to a person in three divided doses per day (t.i.d.) for two weeks.
15 mg of 25R-Spirostan-3B, 5α-diol-6-one was given to a person in three divided doses per day (t.i.d.) for two weeks.

[12] = Life span of a Great Dane on daily administration; format: in vivo, dogs; details: 8 mg/day from age 8, upper limit for lineage 10 years
Method: The compounds of invention are also useful for lengthening the life span of various large breeds of dogs (and presumably small breeds). One Great Dane. given 25R-Spirostan-3B, 5α-diol-6-one daily (8 mg/day) from age 8 on. lived to be almost 13 years old. The dog had to be euthanized because it suffered from dysplasia in both hips; otherwise it was healthy and active. The upper limit of age for Great Danes of this lineage was previously considered to be 10 years.
A Great Dane that was given 25R-Spirostan-3B, 5α-diol-6-one daily (8 mg/day) from age 8 on lived to be almost 13 years old. The dog had to be euthanized because it suffered from dysplasia in both hips; otherwise it was healthy and active. The upper limit of age for Great Danes of this particular lineage was previously considered to be 10 years.

[13] = cited from earlier work
[14] = 3 grams/day for 30 days, humans; cited from earlier work
[15] = rat, in vivo, 25 mg/kg; cited from earlier work
[16] = 15 mg in three divided doses per day, two weeks, person

Question: With CC(C)(O)CC[C@@H](O)[C@](C)(O)[C@H]1CC[C@@]2(O)C3=CC(=O)[C@@H]4C[C@@H](O)[C@@H](O)C[C@]4(C)[C@H]3[C@H](O)C[C@]12C [turkesterone] as the molecule, how does the “sensitivity of protein stimulation to actinomycin D” value [1] read?
Answer: completely insensitive to actinomycin D

Question: Which results are given for CC(=O)O[C@H]1CC[C@@]2(C)C(=CC(=O)[C@H]3[C@@H]4CC[C@H](OC(C)=O)[C@@]4(C)CC[C@@H]32)C1 [5-androsten-3β,17β-diol-7-one diacetate]?
Answer: androgenic side-effects ([2]; 60 mg/day (20 mg tid) orally): No subject reported any noticeable androgenic side-effects; strength, endurance and muscle mass accretion ([2]; 60 mg/day (20 mg tid) orally with weight resistance training): increases in strength and endurance as well as accelerated increases in muscle mass accretion

Question: For C[C@@H]1CC[C@@]2(OC1)O[C@H]1C[C@H]3[C@@H]4CC(=O)[C@H]5C[C@@H](O)CC[C@]5(C)[C@H]4CC[C@]3(C)[C@H]1[C@@H]2C [Laxogenin, (25R)-3β-hydroxy-5α-spirostan-6-one], which pain before surgery ([3]; 3 doses per day at 150 mg per dose, started one week prior to knee surgery) is on record?
Answer: pain had diminished their third day

Question: And the standing and walking ([3]; 7th day after surgery)?
Answer: could stand and walk far distances free of pain, stiffness and discomfort

Question: What about the “need for morphine drip” value ([3]; day after operation) of the same molecule?
Answer: able to discontinue their morphine drip altogether

Question: And the “surface inflammation and scarring” value ([3]; liquid version applied topically)?
Answer: reduced surface inflammation and scarring greatly

Question: And the “behavior of ailing dogs” value [4]?
Answer: started to exhibit puppy like behavior after 48 hours

Question: And the “age lived to” value [4]?
Answer: 16

Question: Which results are given for CC(C)(O)CC[C@@H](O)[C@](C)(O)[C@H]1CC[C@@]2(O)C3=CC(=O)[C@@H]4C[C@@H](O)[C@@H](O)C[C@]4(C)[C@H]3CC[C@]12C [ecdysterone, 20-Hydroxyecdysone]?
Answer: serum half-life [5]: 8.15 min; repression of induced protein synthesis by actinomycin D ([1]; Japanese report, Chem. Pharm. Bull. 1969): partially repressed; sensitivity of protein stimulation to actinomycin D [1]: completely insensitive to actinomycin D

Question: What does the source list for C[C@@H]1CC[C@@]2(OC1)O[C@H]1C[C@H]3[C@@H]4C(=O)C=C5C[C@@H](O)CC[C@]5(C)[C@H]4CC[C@]3(C)[C@H]1[C@@H]2C [7-keto-diosgenin, 5,25R-spirosten-3β-ol-7-one]?
Answer: activity, stamina, appetite, stiffness, overall health reported by pet owners [4]: increased activity, playfulness, physical stamina, appetite and interaction with owners, reduced stiffness and weakness, and improved overall health; lean muscle mass and body fat [4]: increased many of the dogs' lean muscle mass while reducing body fat; behavior of ailing dogs [4]: started to exhibit puppy like behavior after 48 hours; age lived to [4]: 16; physical stamina and endurance [6]: noticeable improvement in their dogs physical stamina and endurance within one week; skin elasticity and strength [7]: dramatic increases in skin elasticity and strength; traumatic purpurra and venous lakes [7]: Virtually all traumatic purpurra and venous lakes were resolved within two months; synergy with laxogenin and/or 5-hydroxy laxogenin [8]: unexpectedly synergistic

Question: With C[C@@H]1CC[C@@]2(OC1)O[C@H]1C[C@H]3[C@@H]4CC(=O)[C@@]5(O)C[C@@H](O)CC[C@]5(C)[C@H]4CC[C@]3(C)[C@H]1[C@@H]2C [25R-Spirostan-3B, 5α-diol-6-one, (25R)-spirostan-3β-5α-diol-6-one] as the molecule, how does the “binding to androgen receptors” value [9] read?
Answer: did not bind

Question: What about the “binding to estrogen receptors” value [10] of the same molecule?
Answer: did not bind

Question: And the “length of time able to work in garden” value [11, 16]?
Answer: 2-3 times

Question: What about the “well-being, energy and physical stamina” value [11, 16] of the same molecule?
Answer: overall increase in well-being, accompanied by a definite increase in energy and physical stamina

Question: What about the total sleep time ([11]; 60 mg/day, over one month, increased from 6 hrs/night) of the same molecule?
Answer: approximately 8 hrs/night

Question: And the “physical energy and stamina” value ([11]; 60 mg/day, person and person)?
Answer: definite increases in physical energy and stamina within one week

Question: What about the “activity, stamina, appetite, stiffness, overall health reported by pet owners” value [4] of the same molecule?
Answer: increased activity, playfulness, physical stamina, appetite and interaction with owners, reduced stiffness and weakness, and improved overall health

Question: What about the “lean muscle mass and body fat” value [4] of the same molecule?
Answer: increased many of the dogs' lean muscle mass while reducing body fat

Question: And the “age lived to” value [12]?
Answer: ~13 years

Question: And the “physical stamina and endurance” value [6]?
Answer: noticeable improvement in their dogs physical stamina and endurance within one week

Question: And the “skin elasticity and strength” value [7]?
Answer: dramatic increases in skin elasticity and strength

Question: What about the “traumatic purpurra and venous lakes” value [7] of the same molecule?
Answer: Virtually all traumatic purpurra and venous lakes were resolved within two months

Question: And the “anabolic activity in older (mature) rats” value ([13]; older (i.e. mature) rats)?
Answer: reduced anabolic activity

Question: What about the “anabolic activity in young rats” value ([13]; young rats) of the same molecule?
Answer: higher anabolic activity

Question: For C[C@@H]1CC[C@@]2(OC1)O[C@H]1C[C@H]3[C@@H]4CC=C5C[C@@H](O)CC[C@]5(C)[C@H]4CC[C@]3(C)[C@H]1[C@@H]2C [diosgenin], which “metabolism in the B-ring” value [14] is on record?
Answer: not metabolized in the B-ring

Question: And the serum half-life [15]?
Answer: approximately 14 hours
